Source: publication PMC7894407, “Rapid conversion of isoprene photooxidation products in terrestrial plants” (Communications earth & environment, 2020)

What was measured:
[1] = tested on: T1, poplar AOR (EC 1.3.1.74), alkenal/one oxidoreductase; assay: NADPH consumption at A340 nm, MVK varied, leaf protein extract; assay type: biochemical, Populus x canescens; conditions: co-substrate NADPH; apparent in vitro, crude leaf extract; 50 mM Tris/HCl, 20 mM MgCl2, 5% glycerol, 2 mM DTT; read-out: Michaelis-Menten constant
T1 construct: gene AORchl; native enzyme in desalted (Sephadex G-25 PD-10) crude leaf protein extract, not purified; AORchl predominantly expressed in leaf, AORcyt-II in stem; active isoenzyme not determined

[2] = tested on: T1, poplar AOR (EC 1.3.1.74), alkenal/one oxidoreductase; assay: NADPH consumption at A340 nm, NADPH varied, leaf protein extract; assay type: biochemical, Populus x canescens; conditions: co-substrate MVK; apparent in vitro, crude leaf extract; 50 mM Tris/HCl, 20 mM MgCl2, 5% glycerol, 2 mM DTT; read-out: Michaelis-Menten constant

Compound	Km [1] [mM]	Km [2] [mM]
C=CC(C)=O [MVK]	14.1	–
NC(=O)C1=CN([C@@H]2O[C@H](COP(=O)(O)OP(=O)(O)OC[C@H]3O[C@@H](n4cnc5c(N)ncnc54)[C@H](OP(=O)(O)O)[C@@H]3O)[C@@H](O)[C@H]2O)C=CC1 [NADPH]	–	0.049
